Results taken from patent US9840500B2, “Compounds as dual inhibitors of histone methyltransferases and DNA methyltransferases” (FUNDACIÓN PARA LA INVESTIGACIÓN MÉDICA APLICADA, priority 2014, dated 2017).

Key:
Hep3B = test: Cell proliferation assay, Hep3B (HCC); assay type: cell-based; conditions: Homo sapiens, 48 hours of treatment, Table 3
Experimental: (§1) Cell proliferation was analyzed after 48 hours of in vitro treatment using the CellTiter 96 Aqueous One Solution Cell Proliferation Assay (Promega, Madison, Wis.). This is a colorimetric method for determining the number of viable cells in proliferation.
(§2) For the assay, suspension cells were cultured by triplicate at a density of 1×10^6 cells/ml in 96-well plates (100.000 cells/well, 100 μl/well), except for OCILY-3 and OCILY-10 cell lines which were cultured at a density of 0.5×10^6 cells/ml (50.000 cells/well, 100 μl/well) and for HepG2, Hep3B and PLC/PRF/5 cell ines which were cultured at a density of 3000 cells/well, 100 μl/well). Adherent cells were obtained from 80-90% confluent flasks and 100 μl of cells were seeded at a density of 5000 cells/well in 96-well plates by triplicate. Before addition of the compounds, adherent cells were allowed to attach to the bottom of the wells for 12 hours. In all cases, only the 60 inner wells were used to avoid any border effects.
(§3) After 48 hours of treatment, plates with suspension cells were centrifuged at 800 g for 10 minutes and medium was removed. The plates with adherent cells were flicked to remove medium. Then, cells were incubated with 100 ul/well of medium and 20 ul/well of CellTiter 96 Aqueous One Solution reagent. After 1-3 hours of incubation at 37° C., absorbance was measured at 490 nm in a 96-well plate reader. The background absorbance was measured in wells with only cell line medium and solution reagent. Data was calculated as a percentage of total absorbance of treated cell/absorbance of non treated cells.

PLC/PRF/5 = test: Cell proliferation assay, PLC/PRF/5 (HCC); assay type: cell-based; conditions: Homo sapiens, 48 hours of treatment, Table 3
Experimental: as §1, §2, §3

CEMO-1 = test: Cell proliferation assay, CEMO-1 (ALL); assay type: cell-based, human; conditions: Homo sapiens; 48 hours of treatment; Table 3
Experimental: as §1, §2, §3

DNMT1 = DNMT1 (Homo sapiens, UniProt P26358); test: DNMT1 enzyme activity assay (TR-FRET, EPIgeneous methyltransferase assay); assay type: biochemical
Experimental: The biochemical assay to measure DNMT1 enzyme activity relies on time-resolved fluorescence energy transfer (TR-FRET) between lumi4-Tb (donor) and d2 (acceptor) using the EPIgeneous methyltransferase assay (CisBio Cat#62SAHPEB). […] TR-FRET signal is inversely proportional to the concentration of SAH, product of DNMT1 enzyme activity, in the sample.
The human DNMT1 was obtained from Reaction Biology Corp. (Cat# DMT-21-124). […] Final percentage of DMSO was 0.5%. • 2 μl of 1 nM DNMT1 enzyme diluted in assay buffer.
(§4) For each well, fluorescence was measured at 620 nm and 665 nm. A ratio (665 nm/620 nm) was then calculated in order to minimize medium interferences. Positive control was obtained in the presence of the vehicle of the compounds. Negative control was obtained in the absence of G9a enzyme activity. Calculated IC50 values were determined using GraphPrism using 4-parameters inhibition curve.

OCI-Ly10 = test: Cell proliferation assay, OCI-Ly10 (ABC-DLBCL); assay type: cell-based; conditions: Homo sapiens, 48 hours of treatment, Table 3
Experimental: as §1, §2, §3

OCI-Ly3 = test: Cell proliferation assay, OCI-Ly3 (ABC-DLBCL); assay type: cell-based; conditions: Homo sapiens, 48 hours of treatment, Table 3
Experimental: as §1, §2, §3

human G9a enzyme = target: T1, human G9a enzyme (Homo sapiens, UniProt Q96KQ7); test: G9a enzyme activity assay (TR-FRET); assay type: biochemical
T1 sequence (Q96KQ7 1-1210): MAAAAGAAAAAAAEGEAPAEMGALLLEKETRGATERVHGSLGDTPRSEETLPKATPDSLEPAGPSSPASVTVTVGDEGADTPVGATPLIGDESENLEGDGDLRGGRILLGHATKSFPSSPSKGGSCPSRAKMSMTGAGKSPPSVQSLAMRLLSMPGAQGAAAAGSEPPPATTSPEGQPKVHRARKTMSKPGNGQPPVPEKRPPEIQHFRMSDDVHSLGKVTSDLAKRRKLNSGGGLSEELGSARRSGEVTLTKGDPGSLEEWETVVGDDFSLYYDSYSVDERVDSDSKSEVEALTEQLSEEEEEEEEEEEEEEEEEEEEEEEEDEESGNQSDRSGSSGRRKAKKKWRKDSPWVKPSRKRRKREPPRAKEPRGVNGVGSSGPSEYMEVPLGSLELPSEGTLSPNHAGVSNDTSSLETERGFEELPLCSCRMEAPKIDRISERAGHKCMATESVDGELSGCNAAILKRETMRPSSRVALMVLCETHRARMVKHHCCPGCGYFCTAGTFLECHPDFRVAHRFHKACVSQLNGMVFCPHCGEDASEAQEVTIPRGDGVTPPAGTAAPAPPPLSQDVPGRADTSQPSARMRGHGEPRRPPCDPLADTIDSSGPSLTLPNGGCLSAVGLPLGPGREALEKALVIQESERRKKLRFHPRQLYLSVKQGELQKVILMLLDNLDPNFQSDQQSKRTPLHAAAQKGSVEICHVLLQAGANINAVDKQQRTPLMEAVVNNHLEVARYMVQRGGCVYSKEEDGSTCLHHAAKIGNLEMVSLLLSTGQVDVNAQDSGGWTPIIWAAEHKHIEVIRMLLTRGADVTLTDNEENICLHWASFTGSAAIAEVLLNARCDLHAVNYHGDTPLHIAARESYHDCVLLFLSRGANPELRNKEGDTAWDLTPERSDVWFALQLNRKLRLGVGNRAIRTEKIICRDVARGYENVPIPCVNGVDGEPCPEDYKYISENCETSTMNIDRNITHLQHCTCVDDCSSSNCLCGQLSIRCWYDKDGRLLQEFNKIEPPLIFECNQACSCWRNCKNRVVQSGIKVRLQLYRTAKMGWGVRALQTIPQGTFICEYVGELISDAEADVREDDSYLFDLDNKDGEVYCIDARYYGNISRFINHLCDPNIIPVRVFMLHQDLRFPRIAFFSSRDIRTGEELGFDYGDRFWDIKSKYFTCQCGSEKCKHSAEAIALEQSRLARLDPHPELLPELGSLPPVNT
Experimental: The biochemical assay to measure G9a enzyme activity relies on time-resolved fluorescence energy transfer (TR-FRET) between europium cryptate (donor) and XL665 (acceptor). […] The human G9a enzyme expressed in a baculovirus infected Sf9 cell expression system was obtained from BPS Biosciences (Cat. #51001). […] Final percentage of DMSO was 0.5%. • 2 μl of 1 nM G9a enzyme diluted in assay buffer. […] Final concentration 150 nM. • Then, add 5 μl of streptavidin XL665 beads. Final concentration of 16 μM. • Read the plate after 1 hour of incubation at room temperature.
as §4

HepG2 = test: Cell proliferation assay, HepG2 (HCC); assay type: cell-based; conditions: Homo sapiens, 48 hours of treatment, Table 3
Experimental: as §1, §2, §3

LAL-CUN-2 = test: Cell proliferation assay, LAL-CUN-2 (ALL); assay type: cell-based; conditions: 48 hours of treatment; Table 3
Experimental: as §1, §2, §3

Sequence of DNMT1 (P26358 whole entry): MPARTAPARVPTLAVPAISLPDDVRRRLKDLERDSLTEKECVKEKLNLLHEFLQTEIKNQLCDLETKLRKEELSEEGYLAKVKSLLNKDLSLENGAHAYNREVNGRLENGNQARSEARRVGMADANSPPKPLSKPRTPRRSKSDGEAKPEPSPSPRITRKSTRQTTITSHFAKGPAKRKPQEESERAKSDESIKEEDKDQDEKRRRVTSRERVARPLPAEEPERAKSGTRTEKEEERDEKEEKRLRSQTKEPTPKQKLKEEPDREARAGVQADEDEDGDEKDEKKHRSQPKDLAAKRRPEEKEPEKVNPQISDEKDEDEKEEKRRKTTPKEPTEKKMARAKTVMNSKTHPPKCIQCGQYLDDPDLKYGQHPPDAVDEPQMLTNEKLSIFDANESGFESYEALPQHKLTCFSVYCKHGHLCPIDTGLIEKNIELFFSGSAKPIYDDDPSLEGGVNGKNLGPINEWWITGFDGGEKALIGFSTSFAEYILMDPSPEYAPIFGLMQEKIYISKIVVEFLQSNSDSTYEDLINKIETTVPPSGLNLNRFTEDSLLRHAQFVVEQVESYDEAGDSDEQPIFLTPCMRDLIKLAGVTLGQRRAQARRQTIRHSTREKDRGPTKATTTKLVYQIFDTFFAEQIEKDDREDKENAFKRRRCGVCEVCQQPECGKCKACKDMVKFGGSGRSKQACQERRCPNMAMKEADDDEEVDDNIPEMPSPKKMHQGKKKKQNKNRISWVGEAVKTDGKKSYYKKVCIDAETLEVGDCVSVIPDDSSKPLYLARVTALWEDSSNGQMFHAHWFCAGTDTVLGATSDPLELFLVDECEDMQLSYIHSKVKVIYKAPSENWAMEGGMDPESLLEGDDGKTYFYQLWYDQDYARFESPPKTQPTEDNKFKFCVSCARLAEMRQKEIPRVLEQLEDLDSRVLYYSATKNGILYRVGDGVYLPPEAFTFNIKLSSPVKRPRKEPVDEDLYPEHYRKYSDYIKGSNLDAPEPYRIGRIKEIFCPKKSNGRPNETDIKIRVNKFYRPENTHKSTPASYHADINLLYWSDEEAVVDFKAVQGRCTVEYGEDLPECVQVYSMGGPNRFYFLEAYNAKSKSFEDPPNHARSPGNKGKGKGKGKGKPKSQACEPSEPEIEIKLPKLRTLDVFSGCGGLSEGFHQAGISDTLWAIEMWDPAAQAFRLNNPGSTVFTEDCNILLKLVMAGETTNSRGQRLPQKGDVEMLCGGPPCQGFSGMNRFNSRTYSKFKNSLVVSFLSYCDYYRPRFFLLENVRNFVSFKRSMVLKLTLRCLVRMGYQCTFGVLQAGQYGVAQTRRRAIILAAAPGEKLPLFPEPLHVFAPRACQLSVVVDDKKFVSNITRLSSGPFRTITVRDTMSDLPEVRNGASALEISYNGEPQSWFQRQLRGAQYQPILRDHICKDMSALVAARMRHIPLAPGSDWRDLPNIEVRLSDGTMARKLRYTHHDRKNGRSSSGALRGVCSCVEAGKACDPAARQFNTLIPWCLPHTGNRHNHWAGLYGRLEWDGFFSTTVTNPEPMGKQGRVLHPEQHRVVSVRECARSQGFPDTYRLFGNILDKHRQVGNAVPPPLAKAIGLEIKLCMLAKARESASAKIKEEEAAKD

## CCc1ccc(-c2cc(NC3CCN(C4CC4)CC3)c3cc(OC)c(OCCCN4CCCC4)cc3n2)o1 [Compound 3-48]
Hep3B
  GI50: 1 to 10 µM
PLC/PRF/5
  GI50: ≤ 10 µM
CEMO-1
  GI50: 0.1 to 1 µM
DNMT1
  IC50: 0.1 to 0.5 µM
OCI-Ly10
  GI50: 0.1 to 1 µM
OCI-Ly3
  GI50: 1 to 10 µM
Human G9a enzyme
  IC50: < 0.1 µM
HepG2
  GI50: 1 to 10 µM

## CCc1ccc(-c2cc(NCC3CCN(C4CC4)CC3)c3cc(OC)c(OCCCN4CCCC4)cc3n2)o1 [Compound 3-49]
Hep3B
  GI50: 0.1 to 1 µM
PLC/PRF/5
  GI50: 0.1 to 1 µM
CEMO-1
  GI50: 0.1 to 1 µM
DNMT1
  IC50: 0.1 to 0.5 µM
OCI-Ly10
  GI50: 0.1 to 1 µM
OCI-Ly3
  GI50: < 0.1 µM
Human G9a enzyme
  IC50: 0.1 to 0.5 µM
HepG2
  GI50: 0.1 to 1 µM

## CCc1ccc(-c2cc(NC3CC4CCC(C3)N4C)c3cc(OC)c(OCCCN4CCCC4)cc3n2)o1 (centres unmarked) [Compound 3-50]
Hep3B
  GI50: 1 to 10 µM
PLC/PRF/5
  GI50: 0.1 to 1 µM
CEMO-1
  GI50: 0.1 to 1 µM
DNMT1
  IC50: 0.1 to 0.5 µM
OCI-Ly10
  GI50: 1 to 10 µM
OCI-Ly3
  GI50: 0.1 to 1 µM
Human G9a enzyme
  IC50: < 0.1 µM
HepG2
  GI50: 1 to 10 µM

## CCc1ccc(-c2cc(NC3C4CCC3CN(C)C4)c3cc(OC)c(OCCCN4CCCC4)cc3n2)o1 (centres unmarked) [Compound 3-51]
Hep3B
  GI50: 0.1 to 1 µM
PLC/PRF/5
  GI50: 0.1 to 1 µM
CEMO-1
  GI50: 0.1 to 1 µM
DNMT1
  IC50: 0.1 to 0.5 µM
OCI-Ly10
  GI50: 0.1 to 1 µM
OCI-Ly3
  GI50: 1 to 10 µM
Human G9a enzyme
  IC50: < 0.1 µM
HepG2
  GI50: 0.1 to 1 µM

## COc1cc2c(NC3CC4(CCN(C)C4)C3)cc(-c3ccc(C)o3)nc2cc1OCCCN1CCCC1 (centres unmarked) [Compound 5-03]
LAL-CUN-2
  GI50: 1 to 10 µM
OCI-Ly3
  GI50: 0.1 to 1 µM

## COc1cc2c(NC3CCC34CCN(C)C4)cc(-c3ccc(C)o3)nc2cc1OCCCN1CCCC1 (centres unmarked) [Compound 5-04]
LAL-CUN-2
  GI50: 1 to 10 µM
OCI-Ly3
  GI50: 0.1 to 1 µM

## CCc1ccc(-c2cc(NC3CC4(CCN(C)CC4)C3)c3cc(OC)c(OCCCN4CCCC4)cc3n2)o1 [Compound 5-06, 2-(5-ethyl-2-furyl)-6-methoxy-N-(7-methyl-7-azaspiro[3.5]nonan-2-yl)-7-(3-pyrrolidin-1-ylpropoxy)quinolin-4-amine; 2,2,2-trifluoroacetic acid]
Hep3B
  GI50: 0.1 to 1 µM
PLC/PRF/5
  GI50: 0.1 to 1 µM
CEMO-1
  GI50: 0.1 to 1 µM
DNMT1
  IC50: 0.1 to 0.5 µM
OCI-Ly10
  GI50: 0.1 to 1 µM
OCI-Ly3
  GI50: 0.1 to 1 µM
Human G9a enzyme
  IC50: < 0.1 µM
HepG2
  GI50: 0.1 to 1 µM

## COc1cc2c(NC3CCN(C)CC3)cc(C3=CCCCC3)nc2cc1OCCCN1CCCC1 [Compound 6-01, 2-(cyclohexen-1-yl)-6-methoxy-N-(1-methyl-4-piperidyl)-7-(3-pyrrolidin-1-ylpropoxy)quinolin-4-amine; 2,2,2-trifluoroacetic acid]
LAL-CUN-2
  GI50: 1 to 10 µM
CEMO-1
  GI50: 1 to 10 µM
DNMT1
  IC50: 0.1 to 0.5 µM
Human G9a enzyme
  IC50: < 0.1 µM

## COc1cc2c(NC3CCN(C)CC3)cc(-c3ccc(C)o3)nc2cc1OC1CCN(C)CC1 [Compound 12-02]
Hep3B
  GI50: 1 to 10 µM
PLC/PRF/5
  GI50: 1 to 10 µM
CEMO-1
  GI50: 0.1 to 1 µM
OCI-Ly10
  GI50: 0.1 to 1 µM
OCI-Ly3
  GI50: 0.1 to 1 µM
HepG2
  GI50: 1 to 10 µM

## COc1cc2c(NC3CC4(CCN(C)CC4)C3)cc(-c3ccc(C)o3)nc2cc1OCC1CCN(C)CC1 [Compound 12-03]
Hep3B
  GI50: 0.1 to 1 µM
PLC/PRF/5
  GI50: 0.1 to 1 µM
OCI-Ly3
  GI50: < 0.1 µM
HepG2
  GI50: 0.1 to 1 µM

## COc1cc2c(NC3CCN(C)CC3)cc(-c3ccc(C)o3)nc2cc1OC1CC2(C1)CN(C)C2 [Compound 17-01, 6-methoxy-7-[(2-methyl-2-azaspiro[3.3]heptan-6-yl)oxy]-2-(5-methyl-2-furyl)-N-(1-methyl-4-piperidyl)quinolin-4-amine; 2,2,2-trifluoroacetic acid]
Hep3B
  GI50: 0.1 to 1 µM
PLC/PRF/5
  GI50: 0.1 to 1 µM
OCI-Ly3
  GI50: < 0.1 µM
HepG2
  GI50: 0.1 to 1 µM
